US11970497B2, “Tricyclic AKR1C3 dependent KARS inhibitors” (Novartis AG, priority 2019, dated 2024)

How the values were obtained:
[1] = system: H460 (NRF2 pathway mutant cell line with high AKR1C3 expression); assay: In vitro cell proliferation assay (CellTiter-Glo), H460; format: cell-based; details: Homo sapiens, NCI-H460, 72 h; H460 cells, 3 days, CellTiter-Glo, top concentration 10 μM; read-out: H460 Qualified absolute AC50
Summary of the method: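 Luminescent CellTiter-Glo readout after 3-day compound exposure at 37 °C; 8-point 1:5 series, top 10 μM final. Seeding: 800 cells/well for H460, 2000 cells/well for Hara, RPMI-1640 plus 10% FBS. AC50 and percentage activity derived after normalizing to DMSO (1%) and MG132 (30 μM) controls.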

[2] = system: Hara (NRF2 pathway wild type cell line with low AKR1C3 expression); assay: In vitro cell proliferation assay (CellTiter-Glo), Hara; format: cell-based; details: 72 h; Hara cells, 3 days, CellTiter-Glo, top concentration 10 μM; read-out: HARA Qualified absolute AC50
Text: Cellular Proliferation Assay to Assess Compounds Activity in H460 (NRF2 Pathway Mutant Cell Line with High AKR1C3 Expression) and Hara (NRF2 Pathway Wild Type Cell Line with Low AKR1C3 Expression).
The cell lines A549 and H460 are NRF2 pathway mutant and specifically contain genetic alterations in KEAP1 (A549: G333C, H460: D236H) (Singh A. et al., 2006 PLoS Medicine 3(10) e420). In these cell lines the NRF2 pathway is constitutively active and these cells express high levels of NRF2 protein and NRF2 pathway target gene AKR1C3. […] They have low AKR1C3 expression.
In Vitro Cell Proliferation Assay
Day 1, for H460 800 cells/well or 40 μL of 2×10^4 cells/mL and for Hara 2000 cells/well or 40 μL of 5×10^4 cells/mL medium (RPMI-1640 supplemented with 10% fetal bovine serum and 1% penicillin/streptomycin) were seeded into 384-well tissue culture plates. Day 2, compounds were serially diluted 1:5 to generate 8 point dose response curves and added to cells for a final top concentration of 10 μM. DMSO (1%) control and MG132 (30 μM) controls are added in columns 23 and 24 respectively on each plate for positive and negative control. After incubation for 3 days at 37° C./5% CO2, 30 μl of CellTiter-Glo reagent (Promega) was added and the plates were incubated for 10 min on plate shaker. The amount of luminescence was determined using a Perkin Elmer Envision plate reader. CellTiter-Glo luminescence values of cells treated with DMSO and MG132 controls were used to normalize the data and calculate percentage activity and AC50s of compounds using the Helios Software suite.

Structure (SMILES)	AC50 [1] [nM]	AC50 [2] [nM]
O=C(NCCO)c1cc(CNC(=O)N2CCC3(CC2)CC(=O)c2cc(F)ccc2N3)ccc1F [Example 48, 6′-fluoro-N-(4-fluoro-3-((2-hydroxyethyl)carbamoyl)benzyl)-4′-oxo-3′,4′-dihydro-1′H-spiro[piperidine-4,2′-quinoline]-1-carboxamide]	108	7960
Nc1cc(F)c(CNC(=O)N2CCC3(CC2)CC(=O)c2cc(F)ccc2N3)cc1F [Example 49, N-(4-amino-2,5-difluorobenzyl)-6′-fluoro-4′-oxo-3′,4′-dihydro-1′H-spiro[piperidine-4,2′-quinoline]-1-carboxamide]	113	> 10000
CCN1c2ccc(F)cc2C(=O)CC12CCN(C(=O)NCc1cc(N)c(F)cc1F)CC2 [Example 50, N-(5-amino-2,4-difluorobenzyl)-1′-ethyl-6′-fluoro-4′-oxo-3′,4′-dihydro-1′H-spiro[piperidine-4,2′-quinoline]-1-carboxamide]	122	> 10000
O=C1CC2(CCN(C(=O)NCc3ccc(F)cc3OCC(F)(F)F)CC2)Nc2ccc(F)cc21 [Example 51, 6′-fluoro-N-(4-fluoro-2-(2,2,2-trifluoroethoxy)benzyl)-4′-oxo-3′,4′-dihydro-1′H-spiro[piperidine-4,2′-quinoline]-1-carboxamide]	128	4750
CCNc1cc(F)ccc1CNC(=O)N1CCC2(CC1)CC(=O)c1cc(F)ccc1N2C [Example 52, N-(2-(ethylamino)-4-fluorobenzyl)-6′-fluoro-1′-methyl-4′-oxo-3′,4′-dihydro-1′H-spiro[piperidine-4,2′-quinoline]-1-carboxamide]	139	> 10000
O=C1CC2(CCN(C(=O)NCc3cccc4c3OCO4)CC2)Nc2c(F)cc(F)cc21 [Example 53, N-(benzo[d][1,3]dioxol-4-ylmethyl)-6′,8′-difluoro-4′-oxo-3′,4′-dihydro-1′H-spiro[piperidine-4,2′-quinoline]-1-carboxamide]	141	2020
O=C1CC2(CCN(C(=O)NCc3ccc(O)cc3)CC2)Nc2c(F)cc(F)cc21 [Example 54, 6′,8′-difluoro-N-(4-hydroxybenzyl)-4′-oxo-3′,4′-dihydro-1′H-spiro[piperidine-4,2′-quinoline]-1-carboxamide]	3	9850
CN1c2ccc(F)cc2C(=O)CC12CCN(C(=O)NCc1ccc(F)c(NS(C)(=O)=O)c1)CC2 [Example 55, 6′-fluoro-N-(4-fluoro-3-(methylsulfonamido)benzyl)-1′-methyl-4′-oxo-3′,4′-dihydro-1′H-spiro[piperidine-4,2′-quinoline]-1-carboxamide]	150	5170
Nc1ccc(CNC(=O)N2CCC3(CC2)CC(=O)c2cc(F)ccc2N3)cc1F [Example 56, N-(4-amino-3-fluorobenzyl)-6′-fluoro-4′-oxo-3′,4′-dihydro-1′H-spiro[piperidine-4,2′-quinoline]-1-carboxamide]	166	> 10000
Nc1ccc(CNC(=O)N2CCC3(CC2)CC(=O)c2cc(F)ccc2N3)c(F)c1F [Example 57, N-(4-amino-2,3-difluorobenzyl)-6′-fluoro-4′-oxo-3′,4′-dihydro-1′H-spiro[piperidine-4,2′-quinoline]-1-carboxamide]	170	> 10000
COC(=O)c1cc(CNC(=O)N2CCC3(CC2)CC(=O)c2cc(F)ccc2N3)ccc1F [Example 61, methyl 2-fluoro-5-((6′-fluoro-4′-oxo-3′,4′-dihydro-1′H-spiro[piperidine-4,2′-quinoline]-1-carboxamido)methyl)benzoate]	205	3040
CN1c2ccc(F)cc2C(=O)CC12CCN(C(=O)NCc1ccc(F)c(CC(N)=O)c1)CC2 [Example 62, N-(3-(2-amino-2-oxoethyl)-4-fluorobenzyl)-6′-fluoro-1′-methyl-4′-oxo-3′,4′-dihydro-1′H-spiro[piperidine-4,2′-quinoline]-1-carboxamide]	212	> 10000
O=C1CC2(CCN(C(=O)NCc3ncccc3O)CC2)Nc2c(F)cc(F)cc21 [Example 63, 6′,8′-difluoro-N-((3-hydroxypyridin-2-yl)methyl)-4′-oxo-3′,4′-dihydro-1′H-spiro[piperidine-4,2′-quinoline]-1-carboxamide]	222	> 10000
CNC(=O)c1cc(CNC(=O)N2CCC3(CC2)CC(=O)c2cc(F)ccc2N3)ccc1F [Example 64, 6′-fluoro-N-(4-fluoro-3-(methylcarbamoyl)benzyl)-4′-oxo-3′,4′-dihydro-1′H-spiro[piperidine-4,2′-quinoline]-1-carboxamide]	222	> 10000
Nc1c(F)cc(CNC(=O)N2CCC3(CC2)CC(=O)c2cc(F)ccc2N3)cc1F [Example 65, N-(4-amino-3,5-difluorobenzyl)-6′-fluoro-4′-oxo-3′,4′-dihydro-1′H-spiro[piperidine-4,2′-quinoline]-1-carboxamide]	222	> 10000
CN(C)c1cccc(CNC(=O)N2CCC3(CC2)CC(=O)c2cc(F)cc(F)c2N3)n1 [Example 66, N-((6-(dimethylamino)pyridin-2-yl)methyl)-6′,8′-difluoro-4′-oxo-3′,4′-dihydro-1′H-spiro[piperidine-4,2′-quinoline]-1-carboxamide]	223	> 10000
O=C1CC2(CCN(C(=O)NCc3ccc(F)cc3C(F)(F)F)CC2)Nc2ccc(F)cc21 [Example 67, 6′-fluoro-N-(4-fluoro-2-(trifluoromethyl)benzyl)-4′-oxo-3′,4′-dihydro-1′H-spiro[piperidine-4,2′-quinoline]-1-carboxamide]	225	2300
O=C1CC2(CCN(C(=O)NCc3ccc(F)cc3Cl)CC2)Nc2ccc(F)cc21 [Example 68, N-(2-chloro-4-fluorobenzyl)-6′-fluoro-4′-oxo-3′,4′-dihydro-1′H-spiro[piperidine-4,2′-quinoline]-1-carboxamide]	226	9140
NC(=O)c1cccc(CNC(=O)N2CCC3(CC2)CC(=O)c2cc(F)ccc2N3)c1 [Example 69, N-(3-carbamoylbenzyl)-6′-fluoro-4′-oxo-3′,4′-dihydro-1′H-spiro[piperidine-4,2′-quinoline]-1-carboxamide]	233	> 10000
O=C1CC2(CCN(C(=O)NCc3ccc(F)c(OCCO)c3)CC2)Nc2ccc(F)cc21 [Example 70, 6′-fluoro-N-(4-fluoro-3-(2-hydroxyethoxy)benzyl)-4′-oxo-3′,4′-dihydro-1′H-spiro[piperidine-4,2′-quinoline]-1-carboxamide]	238	3550
O=C1CC2(CCN(C(=O)NCc3cc(OCCO)c(F)cc3F)CC2)Nc2ccc(F)cc21 [Example 71, N-(2,4-difluoro-5-(2-hydroxyethoxy)benzyl)-6′-fluoro-4′-oxo-3′,4′-dihydro-1′H-spiro[piperidine-4,2′-quinoline]-1-carboxamide]	265	> 10000
Nc1cc(CNC(=O)N2CCC3(CC2)CC(=O)c2cc(F)cc(F)c2N3)ccc1F [Example 73, N-(3-amino-4-fluorobenzyl)-6′,8′-difluoro-4′-oxo-3′,4′-dihydro-1′H-spiro[piperidine-4,2′-quinoline]-1-carboxamide]	295	3480
NS(=O)(=O)c1cccc(CNC(=O)N2CCC3(CC2)CC(=O)c2cc(F)ccc2N3)c1 [Example 74, 6′-fluoro-4′-oxo-N-(3-sulfamoylbenzyl)-3′,4′-dihydro-1′H-spiro[piperidine-4,2′-quinoline]-1-carboxamide]	305	> 10000
CCN1c2ccc(F)cc2C(=O)CC12CCN(C(=O)NCc1ccc(F)c(NCCO)c1F)CC2 [Example 75, N-(2,4-difluoro-3-((2-hydroxyethyl)amino)benzyl)-1′-ethyl-6′-fluoro-4′-oxo-3′,4′-dihydro-1′H-spiro[piperidine-4,2′-quinoline]-1-carboxamide]	306	> 10000
CN1c2ccc(F)cc2C(=O)CC12CCN(C(=O)NCc1ccc(N)cc1)CC2 [Example 76, N-(4-aminobenzyl)-6′-fluoro-1′-methyl-4′-oxo-3′,4′-dihydro-1′H-spiro[piperidine-4,2′-quinoline]-1-carboxamide]	309	> 10000
O=C1CC2(CCN(C(=O)NCc3cc(NCCO)c(F)cc3F)CC2)Nc2ccc(F)cc21 [Example 77, N-(2,4-difluoro-5-((2-hydroxyethyl)amino)benzyl)-6′-fluoro-4′-oxo-3′,4′-dihydro-1′H-spiro[piperidine-4,2′-quinoline]-1-carboxamide]	311	> 10000
